In paper PMC10528299, “Targeting FAK/PYK2 with SJP1602 for Anti-Tumor Activity in Triple-Negative Breast Cancer” (Current Issues in Molecular Biology, 2023) one finds remaining activity data, which are given here for 3 compounds.

Test in all cases: Eurofins kinase profiling
Type in all cases: biochemical

For one test, the target named is T1, CHK1(h) (Homo sapiens, UniProt O14757).
T1 construct: purchased Eurofins KinaseProfiler
T1 sequence (O14757 1-476): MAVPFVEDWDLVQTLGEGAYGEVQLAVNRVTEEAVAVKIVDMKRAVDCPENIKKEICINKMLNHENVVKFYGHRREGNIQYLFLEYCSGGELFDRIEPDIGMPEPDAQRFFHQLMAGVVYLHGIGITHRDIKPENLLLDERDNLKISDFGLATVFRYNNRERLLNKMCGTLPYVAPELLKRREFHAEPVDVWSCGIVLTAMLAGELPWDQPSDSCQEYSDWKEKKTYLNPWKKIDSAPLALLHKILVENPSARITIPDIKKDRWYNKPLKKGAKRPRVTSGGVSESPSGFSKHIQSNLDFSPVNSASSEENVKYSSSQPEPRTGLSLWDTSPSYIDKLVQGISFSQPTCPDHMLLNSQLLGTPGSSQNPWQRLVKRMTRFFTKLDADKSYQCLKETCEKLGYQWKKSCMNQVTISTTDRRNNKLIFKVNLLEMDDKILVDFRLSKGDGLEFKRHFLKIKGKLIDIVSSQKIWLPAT
Particulars: read-out: residual kinase activity CHK1(h). How it is done:
(§1) The kinase profiling analysis was performed at Eurofins (Poitiers, France). A total of 110 kinase assays were carried out according to Eurofins’ standard protocols. For protein kinase assays, the kinase activity was measured using Eurofins’ KinaseProfiler radiometric assay. In this assay, a panel of kinases was incubated with the test compound SJP1602 at a concentration of 1 µM, and the kinase activity was determined using radiolabeled phosphate as a substrate. Lipid and atypical kinase assays were conducted using Eurofins’ homogeneous time-resolved fluorescence assay. The same panel of kinases was incubated with SJP1602 at a concentration of 1 µM, and the activity of lipid and atypical kinases was measured using this assay.

For another test, the target named is T2, CSK(h) (Homo sapiens, UniProt P41240).
T2 construct: purchased Eurofins KinaseProfiler
Particulars: read-out: residual kinase activity CSK(h). The protocol: as §1

Another test addresses T3, DDR2(h) (Homo sapiens, UniProt Q16832).
T3 construct: purchased Eurofins KinaseProfiler
T3 sequence (Q16832 22-855): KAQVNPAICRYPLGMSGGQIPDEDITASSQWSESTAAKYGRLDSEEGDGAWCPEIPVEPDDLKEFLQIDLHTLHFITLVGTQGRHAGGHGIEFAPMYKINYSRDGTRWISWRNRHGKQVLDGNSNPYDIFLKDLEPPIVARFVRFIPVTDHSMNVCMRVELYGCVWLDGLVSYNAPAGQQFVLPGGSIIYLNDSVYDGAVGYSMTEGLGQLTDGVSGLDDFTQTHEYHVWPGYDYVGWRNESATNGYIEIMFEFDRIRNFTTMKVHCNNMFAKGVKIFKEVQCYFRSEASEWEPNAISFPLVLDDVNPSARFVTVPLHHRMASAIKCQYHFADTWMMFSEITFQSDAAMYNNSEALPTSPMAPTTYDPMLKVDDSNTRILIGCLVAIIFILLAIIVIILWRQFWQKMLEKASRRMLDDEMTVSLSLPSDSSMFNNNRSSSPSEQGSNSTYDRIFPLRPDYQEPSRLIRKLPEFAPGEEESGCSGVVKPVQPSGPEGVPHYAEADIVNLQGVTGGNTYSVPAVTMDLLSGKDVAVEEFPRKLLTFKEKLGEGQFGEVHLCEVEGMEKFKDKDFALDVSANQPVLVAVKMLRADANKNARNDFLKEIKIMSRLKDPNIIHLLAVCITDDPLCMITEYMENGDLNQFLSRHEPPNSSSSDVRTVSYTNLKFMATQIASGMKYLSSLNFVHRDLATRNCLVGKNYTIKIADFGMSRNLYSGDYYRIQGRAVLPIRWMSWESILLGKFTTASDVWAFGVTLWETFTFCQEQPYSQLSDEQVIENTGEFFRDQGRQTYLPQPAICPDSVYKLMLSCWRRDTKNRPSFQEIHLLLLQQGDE
Particulars: read-out: residual kinase activity DDR2(h). The protocol:
as §1

Another test concerns the target T4, EphB4(h) (Homo sapiens, UniProt P54760).
T4 construct: purchased Eurofins KinaseProfiler
T4 sequence (P54760 16-987): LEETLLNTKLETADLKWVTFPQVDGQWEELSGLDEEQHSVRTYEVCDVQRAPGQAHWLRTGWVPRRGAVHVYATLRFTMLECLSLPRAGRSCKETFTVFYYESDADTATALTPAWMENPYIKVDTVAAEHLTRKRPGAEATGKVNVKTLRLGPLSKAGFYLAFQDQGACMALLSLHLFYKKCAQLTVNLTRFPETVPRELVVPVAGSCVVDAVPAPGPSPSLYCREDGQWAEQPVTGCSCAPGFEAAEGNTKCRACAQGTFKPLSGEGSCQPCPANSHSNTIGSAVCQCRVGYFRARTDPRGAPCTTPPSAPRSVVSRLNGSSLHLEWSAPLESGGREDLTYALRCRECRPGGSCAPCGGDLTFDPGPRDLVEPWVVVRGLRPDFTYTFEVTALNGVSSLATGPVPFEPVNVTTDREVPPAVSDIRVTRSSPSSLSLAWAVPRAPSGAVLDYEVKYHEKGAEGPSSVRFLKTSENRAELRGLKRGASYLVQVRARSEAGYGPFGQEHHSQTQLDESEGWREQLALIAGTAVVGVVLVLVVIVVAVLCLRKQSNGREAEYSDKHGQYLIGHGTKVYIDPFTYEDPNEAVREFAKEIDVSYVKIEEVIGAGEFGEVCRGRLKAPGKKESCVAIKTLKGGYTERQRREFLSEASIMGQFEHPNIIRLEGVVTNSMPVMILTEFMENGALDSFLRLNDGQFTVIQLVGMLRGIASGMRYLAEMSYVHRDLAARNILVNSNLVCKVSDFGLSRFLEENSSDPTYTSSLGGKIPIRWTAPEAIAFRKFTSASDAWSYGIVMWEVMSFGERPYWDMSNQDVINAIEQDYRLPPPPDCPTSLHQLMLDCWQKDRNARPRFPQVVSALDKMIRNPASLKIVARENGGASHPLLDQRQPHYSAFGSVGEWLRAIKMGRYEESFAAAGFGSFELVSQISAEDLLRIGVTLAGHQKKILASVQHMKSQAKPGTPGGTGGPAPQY
Particulars: read-out: residual kinase activity EphB4(h). The protocol: as §1

The next test addresses T5, FAK(h) (Homo sapiens, UniProt Q05397).
T5 construct: purchased Eurofins KinaseProfiler
Particulars: read-out: residual kinase activity FAK(h). How it is done:
as §1

In a further test the target is T6, Flt1(h) (Homo sapiens, UniProt P17948).
T6 construct: purchased Eurofins KinaseProfiler
Particulars: read-out: residual kinase activity Flt1(h). How it is done:
as §1

Test [1] deals with T7, PI3 Kinase (p110a(E542K)/p85a)(h) (Homo sapiens, UniProt P42336, E542K).
T7 construct: purchased Eurofins KinaseProfiler
Particulars: read-out: residual kinase activity PI3 Kinase (p110a(E542K)/p85a)(h). How it is done:
as §1

SMILES strings stand for the structures.

T2 sequence (P41240 whole entry): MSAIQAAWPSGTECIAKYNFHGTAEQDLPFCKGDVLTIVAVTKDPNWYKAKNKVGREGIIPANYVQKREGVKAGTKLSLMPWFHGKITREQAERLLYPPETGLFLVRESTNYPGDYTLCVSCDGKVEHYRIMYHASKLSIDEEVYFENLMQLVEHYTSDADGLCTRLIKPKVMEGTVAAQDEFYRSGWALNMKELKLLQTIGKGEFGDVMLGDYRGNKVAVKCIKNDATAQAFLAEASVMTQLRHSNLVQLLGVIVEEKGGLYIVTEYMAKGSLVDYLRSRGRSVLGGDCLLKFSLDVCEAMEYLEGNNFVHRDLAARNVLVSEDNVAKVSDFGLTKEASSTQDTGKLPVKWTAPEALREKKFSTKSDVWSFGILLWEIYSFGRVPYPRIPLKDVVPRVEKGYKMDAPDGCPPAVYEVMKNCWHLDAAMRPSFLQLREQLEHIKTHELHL
T7 sequence (P42336 whole entry E542K): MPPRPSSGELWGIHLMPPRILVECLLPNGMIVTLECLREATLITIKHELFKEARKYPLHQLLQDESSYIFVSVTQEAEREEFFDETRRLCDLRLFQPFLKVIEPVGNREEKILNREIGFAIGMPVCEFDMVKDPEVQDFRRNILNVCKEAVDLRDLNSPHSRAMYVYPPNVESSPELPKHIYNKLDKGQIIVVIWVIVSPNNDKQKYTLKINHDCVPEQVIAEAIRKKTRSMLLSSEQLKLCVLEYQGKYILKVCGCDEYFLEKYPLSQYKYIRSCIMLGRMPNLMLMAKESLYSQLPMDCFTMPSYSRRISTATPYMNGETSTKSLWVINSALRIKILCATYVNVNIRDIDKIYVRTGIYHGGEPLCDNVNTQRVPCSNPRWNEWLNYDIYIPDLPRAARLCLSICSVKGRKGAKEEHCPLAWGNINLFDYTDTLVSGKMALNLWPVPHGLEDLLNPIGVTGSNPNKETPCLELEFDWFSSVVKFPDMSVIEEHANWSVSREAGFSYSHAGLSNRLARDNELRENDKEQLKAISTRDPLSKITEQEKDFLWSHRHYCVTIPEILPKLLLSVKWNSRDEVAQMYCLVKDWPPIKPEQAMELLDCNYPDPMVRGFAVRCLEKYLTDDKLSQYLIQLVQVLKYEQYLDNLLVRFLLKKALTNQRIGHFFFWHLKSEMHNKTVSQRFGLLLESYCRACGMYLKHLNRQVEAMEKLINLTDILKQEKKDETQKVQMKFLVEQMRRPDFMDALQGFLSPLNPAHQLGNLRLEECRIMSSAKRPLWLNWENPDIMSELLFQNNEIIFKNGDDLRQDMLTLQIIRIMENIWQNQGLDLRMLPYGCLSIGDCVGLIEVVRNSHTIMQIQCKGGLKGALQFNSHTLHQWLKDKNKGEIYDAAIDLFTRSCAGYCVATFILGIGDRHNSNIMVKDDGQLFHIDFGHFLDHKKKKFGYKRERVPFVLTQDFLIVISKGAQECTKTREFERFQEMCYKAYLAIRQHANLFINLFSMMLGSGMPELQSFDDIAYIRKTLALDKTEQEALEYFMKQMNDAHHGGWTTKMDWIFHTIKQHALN
T7 sequence (P27986 whole entry partner): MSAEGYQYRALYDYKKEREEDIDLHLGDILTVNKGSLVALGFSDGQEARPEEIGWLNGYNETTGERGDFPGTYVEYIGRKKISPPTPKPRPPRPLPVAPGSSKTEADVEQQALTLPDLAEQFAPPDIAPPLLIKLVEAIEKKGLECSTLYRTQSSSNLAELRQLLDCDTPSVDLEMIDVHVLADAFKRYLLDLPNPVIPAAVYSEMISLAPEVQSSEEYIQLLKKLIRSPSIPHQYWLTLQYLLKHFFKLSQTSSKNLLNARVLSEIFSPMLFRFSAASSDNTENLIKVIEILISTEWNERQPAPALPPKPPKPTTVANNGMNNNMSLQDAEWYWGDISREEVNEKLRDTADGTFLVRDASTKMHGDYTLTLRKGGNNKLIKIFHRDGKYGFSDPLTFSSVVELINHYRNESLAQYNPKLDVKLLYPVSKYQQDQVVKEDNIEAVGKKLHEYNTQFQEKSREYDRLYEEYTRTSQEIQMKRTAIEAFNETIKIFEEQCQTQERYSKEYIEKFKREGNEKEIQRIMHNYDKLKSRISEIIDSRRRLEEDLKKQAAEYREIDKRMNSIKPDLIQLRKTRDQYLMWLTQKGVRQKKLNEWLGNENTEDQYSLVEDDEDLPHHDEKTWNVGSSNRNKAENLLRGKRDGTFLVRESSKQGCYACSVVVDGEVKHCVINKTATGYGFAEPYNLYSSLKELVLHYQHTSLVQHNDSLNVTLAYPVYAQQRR
T5 sequence (Q05397 whole entry): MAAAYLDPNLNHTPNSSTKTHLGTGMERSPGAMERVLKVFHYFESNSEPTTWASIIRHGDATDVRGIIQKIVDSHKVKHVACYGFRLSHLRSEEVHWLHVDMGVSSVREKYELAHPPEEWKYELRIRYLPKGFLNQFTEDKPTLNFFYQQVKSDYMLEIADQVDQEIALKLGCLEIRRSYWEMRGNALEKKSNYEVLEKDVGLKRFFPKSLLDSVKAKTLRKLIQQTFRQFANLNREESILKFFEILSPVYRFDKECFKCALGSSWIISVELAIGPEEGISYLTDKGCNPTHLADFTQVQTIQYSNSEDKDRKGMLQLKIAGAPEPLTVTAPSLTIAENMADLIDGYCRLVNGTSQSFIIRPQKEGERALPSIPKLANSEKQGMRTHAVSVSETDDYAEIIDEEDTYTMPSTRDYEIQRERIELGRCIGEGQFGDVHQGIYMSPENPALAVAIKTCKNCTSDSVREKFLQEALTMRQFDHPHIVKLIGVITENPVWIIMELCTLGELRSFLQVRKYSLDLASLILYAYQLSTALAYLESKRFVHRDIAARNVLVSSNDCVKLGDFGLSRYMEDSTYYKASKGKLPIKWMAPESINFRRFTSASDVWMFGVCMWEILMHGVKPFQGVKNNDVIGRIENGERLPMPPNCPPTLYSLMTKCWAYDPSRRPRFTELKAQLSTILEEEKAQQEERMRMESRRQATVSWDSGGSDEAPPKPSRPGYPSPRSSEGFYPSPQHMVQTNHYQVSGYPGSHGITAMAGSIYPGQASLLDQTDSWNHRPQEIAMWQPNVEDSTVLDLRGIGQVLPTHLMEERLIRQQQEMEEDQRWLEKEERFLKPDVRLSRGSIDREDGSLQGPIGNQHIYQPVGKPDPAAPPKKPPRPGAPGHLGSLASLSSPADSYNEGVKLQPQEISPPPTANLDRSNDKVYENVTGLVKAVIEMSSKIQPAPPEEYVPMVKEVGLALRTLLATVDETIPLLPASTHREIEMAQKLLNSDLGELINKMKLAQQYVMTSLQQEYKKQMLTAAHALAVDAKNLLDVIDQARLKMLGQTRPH
T6 sequence (P17948 27-1338): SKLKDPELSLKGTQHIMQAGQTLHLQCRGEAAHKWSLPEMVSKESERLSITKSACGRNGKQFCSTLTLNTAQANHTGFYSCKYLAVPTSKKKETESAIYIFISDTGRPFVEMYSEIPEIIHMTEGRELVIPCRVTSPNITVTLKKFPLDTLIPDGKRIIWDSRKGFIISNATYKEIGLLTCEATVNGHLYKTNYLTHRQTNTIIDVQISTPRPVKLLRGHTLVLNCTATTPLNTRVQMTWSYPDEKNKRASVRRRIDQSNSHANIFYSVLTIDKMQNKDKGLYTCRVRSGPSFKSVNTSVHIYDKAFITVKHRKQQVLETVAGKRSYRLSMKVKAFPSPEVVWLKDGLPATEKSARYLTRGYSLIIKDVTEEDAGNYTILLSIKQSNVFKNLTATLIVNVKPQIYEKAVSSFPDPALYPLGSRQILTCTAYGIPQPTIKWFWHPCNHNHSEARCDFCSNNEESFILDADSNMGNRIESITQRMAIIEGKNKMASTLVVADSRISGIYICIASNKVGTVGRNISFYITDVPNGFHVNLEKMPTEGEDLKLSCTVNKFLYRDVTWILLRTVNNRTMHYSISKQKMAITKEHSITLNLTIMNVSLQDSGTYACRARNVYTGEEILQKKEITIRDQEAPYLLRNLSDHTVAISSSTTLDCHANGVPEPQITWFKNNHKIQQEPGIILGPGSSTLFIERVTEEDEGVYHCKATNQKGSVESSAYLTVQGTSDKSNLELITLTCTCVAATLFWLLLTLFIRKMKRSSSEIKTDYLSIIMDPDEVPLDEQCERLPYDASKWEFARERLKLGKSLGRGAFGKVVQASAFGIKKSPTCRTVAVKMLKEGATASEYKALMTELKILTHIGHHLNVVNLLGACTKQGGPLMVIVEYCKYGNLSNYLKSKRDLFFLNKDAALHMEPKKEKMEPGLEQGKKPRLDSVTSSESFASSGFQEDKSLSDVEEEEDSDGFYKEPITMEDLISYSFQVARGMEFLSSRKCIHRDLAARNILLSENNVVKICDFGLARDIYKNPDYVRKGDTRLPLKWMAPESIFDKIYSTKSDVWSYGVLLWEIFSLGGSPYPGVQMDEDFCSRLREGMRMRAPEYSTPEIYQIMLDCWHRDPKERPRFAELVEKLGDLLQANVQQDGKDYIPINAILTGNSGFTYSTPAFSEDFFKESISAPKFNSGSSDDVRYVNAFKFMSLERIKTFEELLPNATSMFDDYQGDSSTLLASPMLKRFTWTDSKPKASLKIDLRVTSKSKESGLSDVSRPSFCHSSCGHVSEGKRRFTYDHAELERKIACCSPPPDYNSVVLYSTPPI

On to `CONC(=O)c1ccccc1Nc1cc(Nc2cc(C)nn2C(C)C)ncc1Cl` [GSK2256098], for which the remaining activity at 1 µM is 85% on CHK1(h); 92% at CSK(h); 138% on DDR2(h); 94% on EphB4(h); -1% at FAK(h); 94% on Flt1(h). Moreover, the remaining activity at 1 µM in test [1] is 97%.
On to `CNC(=O)c1cccc(C)c1Nc1nc(Nc2ccc(N3CCN(C4C5CC6CC4CC(O)(C6)C5)CC3)cc2OC)ncc1C(F)(F)F` (stereo not drawn) [SJP1602, 2-((2-((4-(4-((2s,5r)-5-hydroxyadamantan-2-yl)piperazin-1-yl)-2-methoxyphenyl)amino)-5-(trifluoromethyl)pyrimidin-4-yl)amino)-N,3-dimethylbenzamide], for which the remaining activity at 1 µM worked out at 62% on CHK1(h); 83% on CSK(h); 102% at DDR2(h); 93% on EphB4(h); 3% at FAK(h); 106% on Flt1(h). For the same compound, the remaining activity at 1 µM in test [1] worked out at 101%.
As for `CNC(=O)c1ccc(Nc2ncc(C(F)(F)F)c(NCc3nccnc3N(C)S(C)(=O)=O)n2)cc1` [VS-6063, Defactinib], the remaining activity at 1 µM is 58% at CHK1(h); 88% at CSK(h); 94% at DDR2(h); 67% on EphB4(h); -6% on FAK(h); 21% at Flt1(h). Moreover, the remaining activity at 1 µM in test [1] is 104%.
